This is an account of results in PubChem BioAssay AID328 (DTP/NCI, 2004).

The test has as its system BDF1 mice, P388 leukemia ip, median survival T/C. Kind of test: NCI In Vivo Anticancer Drug Screen. Data for tumor model P388 Leukemia (intraperitoneal) in B6D2F1 (BDF1) mice. Particulars: endpoint: median survival time, higher = longer survival. Put shortly: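 Antitumour effect was judged in vivo: survival in drug-treated mice, normalised to that of vehicle-dosed controls, gives the reported T/C.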

The mark [1] stands for this setting: dose: 25.0 mg/kg/injection, schedule: Q01DX009 (ip), vehicle: saline.
Setting [2] is: dose: 100.0 mg/kg/injection, schedule: Q01DX009 (ip), vehicle: saline.
[3] abbreviates: dose: 100.0 mg/kg/injection, schedule: Q04DX003 (ip), vehicle: Klucel (hydroxypropylcellulose) (HPC).
Where [4] appears, read: dose: 12.5 mg/kg/injection, schedule: Q01DX009 (ip), vehicle: Klucel (hydroxypropylcellulose) (HPC).
The mark [5] stands for this setting: dose: 25.0 mg/kg/injection, schedule: Q01DX009 (ip), vehicle: Klucel (hydroxypropylcellulose) (HPC).
Setting [6] is: dose: 50.0 mg/kg/injection, schedule: Q01DX009 (ip), vehicle: Klucel (hydroxypropylcellulose) (HPC).
[7] abbreviates: dose: 100.0 mg/kg/injection, schedule: Q01DX009 (ip), vehicle: Klucel (hydroxypropylcellulose) (HPC).
[8] abbreviates: dose: 200.0 mg/kg/injection, schedule: Q01DX009 (ip), vehicle: Klucel (hydroxypropylcellulose) (HPC).
Where [9] appears, read: dose: 200.0 mg/kg/injection, schedule: Q04DX003 (ip), vehicle: Klucel (hydroxypropylcellulose) (HPC).

Inconclusive results and toxic doses are left out.

For the compound `O=C1C(Cl)=C(Cl)C(=O)C2CC=CCC12` (centres undefined), the T/C by setting is: (dose: 3.13 mg/kg/injection, schedule: Q01DX001 (ip), vehicle: saline with Tween-80) 95 % of control; (dose: 6.25 mg/kg/injection, schedule: Q01DX001 (ip), vehicle: saline with Tween-80) 114 % of control.

Regarding `O=c1[nH]nnc2ccccc12`, the T/C under setting [1] was 95 % of control; the T/C (dose: 25.0 mg/kg/injection, schedule: Q04DX003 (ip), vehicle: Klucel (hydroxypropylcellulose) (HPC)) was 100 % of control; the T/C (dose: 37.5 mg/kg/injection, schedule: Q04DX003 (ip), vehicle: Klucel (hydroxypropylcellulose) (HPC)) was 100 % of control; the T/C (dose: 50.0 mg/kg/injection, schedule: Q01DX009 (ip), vehicle: saline) is 95 % of control; the T/C (dose: 50.0 mg/kg/injection, schedule: Q04DX003 (ip), vehicle: Klucel (hydroxypropylcellulose) (HPC)) is 104 % of control; the T/C (dose: 75.0 mg/kg/injection, schedule: Q04DX003 (ip), vehicle: Klucel (hydroxypropylcellulose) (HPC)) is 95 % of control. For the same compound, the T/C was 90 % of control under setting [2]; 100 % of control under setting [3]; 100 % of control (dose: 150.0 mg/kg/injection, schedule: Q01DX009 (ip), vehicle: Klucel (hydroxypropylcellulose) (HPC)); 109 % of control (dose: 150.0 mg/kg/injection, schedule: Q04DX003 (ip), vehicle: Klucel (hydroxypropylcellulose) (HPC)).

For the compound `C=C(C)C(=O)OC1C(C(C)CCCO)=C(CO)CC2OC(=O)C(=C)C21` (centres undefined), the T/C runs as follows: (dose: 2.0 mg/kg/injection, schedule: Q01DX009 (ip), vehicle: saline + alcohol) 104 % of control; (dose: 4.0 mg/kg/injection, schedule: Q01DX009 (ip), vehicle: saline + alcohol) 109 % of control; (dose: 8.0 mg/kg/injection, schedule: Q01DX009 (ip), vehicle: saline + alcohol) 114 % of control; (dose: 16.0 mg/kg/injection, schedule: Q01DX009 (ip), vehicle: saline + alcohol) 109 % of control; (dose: 32.0 mg/kg/injection, schedule: Q01DX009 (ip), vehicle: saline + alcohol) 152 % of control.

On to `O=C1C(Cl)=CC(=NS(=O)(=O)c2ccccc2)C=C1Cl`, for which the T/C was 110 % of control (dose: 3.13 mg/kg/injection, schedule: Q04DX003 (ip), vehicle: saline with Tween-80); 110 % of control (dose: 6.25 mg/kg/injection, schedule: Q04DX003 (ip), vehicle: saline with Tween-80); 110 % of control (dose: 12.5 mg/kg/injection, schedule: Q04DX003 (ip), vehicle: saline with Tween-80).

`CC(C(=O)O)N(CC(=O)O)CC(=O)O.[Co+2].[NH-]CC(=O)O` (centres undefined): the T/C runs as follows: (dose: 12.5 mg/kg/injection, schedule: Q01DX009 (ip), vehicle: water) 99 % of control; (dose: 25.0 mg/kg/injection, schedule: Q01DX009 (ip), vehicle: water) 108 % of control; (dose: 50.0 mg/kg/injection, schedule: Q01DX009 (ip), vehicle: water) 105 % of control; (dose: 50.0 mg/kg/injection, schedule: Q04DX003 (ip), vehicle: water) 103 % of control; (dose: 100.0 mg/kg/injection, schedule: Q04DX003 (ip), vehicle: water) 96 % of control.

Consider `COc1cccc2c1C(=O)c1c(O)c3c(c(O)c1C2=O)CC(O)(/C(C)=N/NC(=O)CCCCCCC(=O)N/N=C(\C)C1(O)Cc2c(O)c4c(c(O)c2C(OC2CC(N)C(O)C(C)O2)C1)C(=O)c1c(OC)cccc1C4=O)CC3OC1CC(N)C(O)C(C)O1` (centres undefined), for which the T/C is 165 % of control (dose: 2.0 mg/kg/injection, schedule: Q01DX009 (ip), vehicle: water) and 201 % of control (dose: 4.0 mg/kg/injection, schedule: Q01DX009 (ip), vehicle: water).

On to `CN1CCN(CCOC(=O)N2c3ccccc3Sc3ccccc32)CC1`, for which the T/C was 100 % of control under setting [4], 105 % of control under setting [5] and 100 % of control under setting [6].

Regarding `COC(CC(C)CCCC(C)(C)O)OC` (centres undefined), the T/C is, setting by setting: under setting [6], 110 % of control; under setting [7], 110 % of control; under setting [3], 100 % of control; under setting [8], 110 % of control; under setting [9], 112 % of control.

Consider `CC(=O)Nc1ccc2c(O)cc(S(=O)(=O)O)cc2c1`, for which the T/C under setting [2] was 107 % of control; the T/C (dose: 200.0 mg/kg/injection, schedule: Q01DX009 (ip), vehicle: saline) was 98 % of control; the T/C (dose: 400.0 mg/kg/injection, schedule: Q01DX009 (ip), vehicle: saline) is 114 % of control.

On to `O=C(CCC(O)c1ccccc1)NCc1ccccc1` (centres undefined), for which the T/C is, setting by setting: (dose: 100.0 mg/kg/injection, schedule: Q01DX001 (ip), vehicle: saline with Tween-80) 104 % of control; (dose: 200.0 mg/kg/injection, schedule: Q01DX001 (ip), vehicle: saline with Tween-80) 100 % of control; (dose: 400.0 mg/kg/injection, schedule: Q01DX001 (ip), vehicle: saline with Tween-80) 90 % of control.

Turning to `CC(=O)CC(=O)OCc1ccccc1`, the T/C is 100 % of control (dose: 100.0 mg/kg/injection, schedule: Q01DX009 (ip), vehicle: saline with Tween-80); 118 % of control (dose: 200.0 mg/kg/injection, schedule: Q01DX009 (ip), vehicle: saline with Tween-80); 100 % of control (dose: 400.0 mg/kg/injection, schedule: Q01DX009 (ip), vehicle: saline with Tween-80).

As to `COC(=O)C(NC(=O)c1ccccc1)=C(COC(C)=O)COC(C)=O`, the T/C is 95 % of control (dose: 100.0 mg/kg/injection, schedule: Q04DX003 (ip), vehicle: saline sonified); 100 % of control (dose: 200.0 mg/kg/injection, schedule: Q04DX003 (ip), vehicle: saline sonified); 110 % of control (dose: 400.0 mg/kg/injection, schedule: Q04DX003 (ip), vehicle: saline sonified).

For the compound `CC(C(=O)O)N1C(=O)c2ccccc2C1=O` (centres undefined), the T/C by setting is: under setting [7], 109 % of control; under setting [3], 100 % of control; under setting [8], 109 % of control; under setting [9], 104 % of control; (dose: 400.0 mg/kg/injection, schedule: Q01DX009 (ip), vehicle: Klucel (hydroxypropylcellulose) (HPC)) 118 % of control; (dose: 400.0 mg/kg/injection, schedule: Q04DX003 (ip), vehicle: Klucel (hydroxypropylcellulose) (HPC)) 100 % of control.

Consider `Nc1cc2c(c(Cl)c1Br)-c1ccccc1C2=O`, for which the T/C is 90 % of control under setting [4]; 86 % of control under setting [5]; 86 % of control (dose: 100.0 mg/kg/injection, schedule: Q01DX001 (ip), vehicle: other); 104 % of control (dose: 200.0 mg/kg/injection, schedule: Q01DX001 (ip), vehicle: other); 104 % of control (dose: 400.0 mg/kg/injection, schedule: Q01DX001 (ip), vehicle: other).

In the case of `CCN(CC)C(=S)S`, the T/C is 104 % of control (dose: 100.0 mg/kg/injection, schedule: Q01DX009 (ip), vehicle: saline sonified); 100 % of control (dose: 200.0 mg/kg/injection, schedule: Q01DX009 (ip), vehicle: saline sonified); 118 % of control (dose: 400.0 mg/kg/injection, schedule: Q01DX009 (ip), vehicle: saline sonified); 100 % of control (dose: 400.0 mg/kg/injection, schedule: Q01DX010 (ip), vehicle: water).

Regarding `NC(=O)Nc1cccc2ccccc12`, the T/C was 88 % of control under setting [3]; 92 % of control (dose: 200.0 mg/kg/injection, schedule: Q01DX009 (ip), vehicle: gum acacia); 92 % of control under setting [9]; 96 % of control (dose: 400.0 mg/kg/injection, schedule: Q01DX009 (ip), vehicle: gum acacia).

For `CCCCNC(C)(C)CS`, the T/C (dose: 3.12 mg/kg/injection, schedule: Q04DX003 (ip), vehicle: saline) was 106 % of control; the T/C (dose: 6.25 mg/kg/injection, schedule: Q04DX003 (ip), vehicle: saline) is 115 % of control; the T/C (dose: 12.5 mg/kg/injection, schedule: Q01DX009 (ip), vehicle: saline) is 116 % of control; the T/C (dose: 12.5 mg/kg/injection, schedule: Q04DX003 (ip), vehicle: saline) is 108 % of control; the T/C under setting [1] was 109 % of control; the T/C (dose: 25.0 mg/kg/injection, schedule: Q04DX003 (ip), vehicle: saline) was 97 % of control. Further, the T/C is, setting by setting: (dose: 50.0 mg/kg/injection, schedule: Q04DX003 (ip), vehicle: saline) 101 % of control; (dose: 100.0 mg/kg/injection, schedule: Q04DX003 (ip), vehicle: saline) 92 % of control.
